Experimental data from patent publication US20050065066A1, “Stabilised insulin compositions” (priority 2002, published 2005).
Read-outs that look alike come from different tables or passages of the source. Each block holds one compound with its values, some of them ahead of it.

Key:
[1] = target: T1, metal site of insulin R6 hexamers (Homo sapiens, UniProt P01308); assay: TZD-assay: fluorescence based displacement assay; type: binding
T1 construct: human insulin comprising additional amino acids, i.e. more than 51 amino acids
Experimental: The binding affinity of ligands to the metal site of insulin R6 hexamers are measured in a fluorescense based displacement assay. The fluorescence of 5-(4-dimethylaminobenzylidene)thiazolidine-2,4-dione (TZD) which is a ligand for the metal site of insulin R6 is quenched upon displacement from the metal site to the solution. Titration of a ligand to a stock solution of insulin R6 hexamers with this compound mounted in the metal site allows the binding affinity of these ligands to be determined measuring the fluorescence at 455 nm upon excitation at 410 nm.
Stock solution: 0.02 mM human insulin, 0.007 mM Zn-acetate, 40 mM phenol, 0.01 mM TZD in 50 mM tris buffer adjusted to pH=8.0 with NaOH/ClO4^−.
The ligand is dissolved in DMSO to a concentration of 5 mM and added in aliquots to the stock solution to final concentrations of 0-250 µM.
Fluorescence measurements were carried out on a Perkin Elmer Spectrofluorometer LS50B. T main absorption band was excited at 410 nm and emission was detected at 455 nm. The resolution was 10 nm and 2.5 nm for excitation and emission, respectively.
This equation is fitted to the datapoints ΔF(455 nm))=ΔFmax* [ligand]free/(KD(app)*(1+[TZD]/KTZD)+[ligand]free)) KD(app) is the apparent dissociation constant and Fmax is the fluorescence at maximal ligand concentration. The value of KTZD is measured separately to 230 nM
Two different fitting-procedures can be used. One in which both parameters, KD(app) and Fmax, are adjusted to best fit the data and a second in which the value of Fmax is fixed (Fmax=1) and only KD(app) is adjusted. The given data are from the second fitting procedure. The Solver module of Microsoft Excel can be used to generate the fits from the data points.

[2] = Chemical stability of insulin formulations by SEC (size exclusion chromatography); type: physicochemical; settings: formulated human insulin, 3 Zn2+ per hexamer
Experimental: (§1) The chemical stability of insulin formulations of the invention was characterised by HPLC (RPC, reverse phase chromatography and SEC, size exclusion chromatography). As reference, insulin formulated without ligands of the invention but with 0.3% DMSO was also investigated and shown below: [drawing]
(§2) Storage in HPLC 1 ml vials at 45° C. (5 d), 37° C. (2 w), 30° C. (6 w), 25° C. (10 w), 15° C. (30 w) gave about the same increase of transformation products correlating to an increase in reactions constants of a factor 3-4 per 10 degree.
SEC (size exclusion chromatography) on Waters insulin HMWP column, 300×7.8 mm, eluted by 15:20:65 of acetic acid: acetonitrile: arginine 1 g/L at flow of 1 mL/min and ambient temperature.

[3] = Chemical stability of insulin formulations by RPC (reverse phase chromatography); type: physicochemical; settings: formulated human insulin, 3 Zn2+ per hexamer
Experimental: as §1
FIG. 10. Reverse phase chromatography of formulated human insulin with 3 Zn^2+ per hexamer, 30 mM phenol, 150 mM mannitol, 3 mM phosphoric acid, sodium hydroxide to pH 7.4 and 0.3% DMSO corresponding to 3 ligands per hexamer at start (upper panel) and after storage for 2 weeks at 37° C. (lower panel): Preservatives before 20 min., “hydrophilic derivatives” (desamido-insulins) 20 min to main top insulin, “hydrophobic derivatives 1” main top to 64 min., and “hydrophobic derivatives 2” (insulin dimers) after 64 min.
as §2
RPC (reverse phase chromatography) on Waters SymmetryShield RP8 column, 150×4.6 mm and 3.5 μm, eluted by A: 0.2 M sodium sulfate+0.04 M sodium phosphate pH 7.2+10% acetonitrile and isocratically (i) or a gradient (g) of B: 70% acetonitrile [minutes/% B(i/g): 0/19, 21/24(i)(sudden change), 51/24(i), 81/39(g), 81.1/0(i), 82.3/19(i)] at flow of 0.9 mL/min and 30° C.

[4] = affinity towards the zinc site, TZD-assay, read-out: Kd(app)

T1 sequence (P01308 25-54 limits assumed): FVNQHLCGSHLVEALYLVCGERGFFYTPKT
T1 sequence (P01308 90-110 limits assumed): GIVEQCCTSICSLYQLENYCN

Structure (SMILES): CN(C)c1ccc(/C=C/C=C2\SC(=O)NC2=O)cc1 [Example 239, 5-[3-(4-Dimethylaminophenyl)allylidene]thiazolidine-2,4-dione]
- melting point: 259 to 263 °C

Structure (SMILES): COc1cc(O)cc(OC)c1/C=C1\SC(=O)NC1=O [Example 234, 5-(4-Hydroxy-2,6-dimethoxybenzylidene)thiazolidine-2,4-dione]
- melting point: 331 to 333 °C

Structure (SMILES): COc1cc(OCc2c(F)cccc2[N+](=O)[O-])cc(OC)c1C=C1SC(=O)NC1=O [Example 237, 5-[4-(2-Fluoro-6-nitrobenzyloxy)-2,6-dimethoxybenzylidene]thiazolidine-2,4-dione]
- melting point: 255 to 256 °C

Structure (SMILES): O=C1NC(=O)/C(=C/c2cc3ccccc3o2)S1 [Example 238, 5-Benzofuran-2-ylmethylenethiazolidine-2,4-dione]
- melting point: 265 to 266 °C

Structure (SMILES): c1ccc2[nH]nnc2c1 [Example 1]
- Kd [1, 4]: 3880 nM

Structure (SMILES): CCCCCOc1ccccc1/C=C1\SC(=O)NC1=O [Example 76, 5-(2-Pentyloxybenzylidene)thiazolidine-2,4-dione]
- Kd [1, 4]: 82 nM

Structure (SMILES): COc1cccc(OC)c1/C=C1\SC(=O)NC1=O [Example 236, 5-(2,6-Dimethoxybenzylidene)thiazolidine-2,4-dione]
- melting point: 241 to 242 °C

Structure (SMILES): O=C1NC(=O)C(=Cc2c[nH]c3ccc([N+](=O)[O-])cc23)S1 [Example 199, 5-(5-Nitro-1H-indol-3-ylmethylene)thiazolidine-2,4-dione]
- melting point: 330 to 333 °C

Structure (SMILES): COc1cc(/C=C2\SC(=O)NC2=O)cc(I)c1O [Example 167, 5-(4-Hydroxy-3-iodo-5-methoxybenzylidene)thiazolidine-2,4-dione]
- melting point: 256 °C

Structure (SMILES): Cc1cccc(C)c1/C=C1\SC(=O)NC1=O [Example 235, 5-(2,6-Dimethylbenzylidene)thiazolidine-2,4-dione]
- melting point: 104 to 105 °C

Structure (SMILES): O=C1NC(=O)/C(=C/c2ccc3cc(O)ccc3c2)S1 [Example 171, 5-(6-Hydroxy-2-naphthylmethylene)thiazolidine-2,4-dione]
- melting point: 310 to 314 °C

Structure (SMILES): O=C1NC(=O)/C(=C/c2c(Cl)cccc2Cl)S1 [Example 229, 5-(2,6-Dichlorobenzylidene)thiazolidine-2,4-dione]
- melting point: 152 to 154 °C

Structure (SMILES): CN(C)c1ccc(/C=C2\SC(=O)NC2=O)cc1 [TZD, 5-(4-dimethylaminobenzylidene)thiazolidine-2,4-dione, reference compound]
- Kd ([1]; measured separately, read-out: KTZD): 230 nM

Structure (SMILES): CCN(CC)c1ccc(/C=C2\SC(=O)NC2=O)cc1 [Example 70, 5-(4-Diethylaminobenzylidene)thiazolidine-2,4-dione]
- dimer ([2]; 5° predicted): (0.15) % formed/year
- dimer ([2]; 15° C.): 0.69 % formed/year
- dimer ([2]; 25° C.): 2.24 % formed/year
- dimer ([2]; 30° C.): 3.55 % formed/year
- dimer ([2]; 37° C.): 8.84 % formed/year
- dimer ([2]; 45° C.): 29.2 % formed/year
- hphil (hydrophilic derivatives, desamido-insulins) ([3]; 5° predicted): (0.54) % formed/year
- hphob1 (hydrophobic derivatives 1) ([3]; 5° predicted): (0.22) % formed/year
- hphob2 (hydrophobic derivatives 2, insulin dimers) ([3]; 5° predicted): (0.064) % formed/year
- hphil (hydrophilic derivatives, desamido-insulins) ([3]; 15° C.): 1.95 % formed/year
- hphob1 (hydrophobic derivatives 1) ([3]; 15° C.): 1.09 % formed/year
- hphob2 (hydrophobic derivatives 2, insulin dimers) ([3]; 15° C.): 0.42 % formed/year
- hphil (hydrophilic derivatives, desamido-insulins) ([3]; 25° C.): 6.08 % formed/year
- hphob1 (hydrophobic derivatives 1) ([3]; 25° C.): 4.99 % formed/year
- hphob2 (hydrophobic derivatives 2, insulin dimers) ([3]; 25° C.): 0.94 % formed/year
- hphil (hydrophilic derivatives, desamido-insulins) ([3]; 30° C.): 12.1 % formed/year
- hphob1 (hydrophobic derivatives 1) ([3]; 30° C.): 6.94 % formed/year
- hphob2 (hydrophobic derivatives 2, insulin dimers) ([3]; 30° C.): 3.03 % formed/year
- hphil (hydrophilic derivatives, desamido-insulins) ([3]; 37° C.): 23.7 % formed/year
- hphob1 (hydrophobic derivatives 1) ([3]; 37° C.): 14.8 % formed/year
- hphob2 (hydrophobic derivatives 2, insulin dimers) ([3]; 37° C.): 6.50 % formed/year
- hphil (hydrophilic derivatives, desamido-insulins) ([3]; 45° C.): 56.2 % formed/year
- hphob1 (hydrophobic derivatives 1) ([3]; 45° C.): 78.8 % formed/year
- hphob2 (hydrophobic derivatives 2, insulin dimers) ([3]; 45° C.): 27.0 % formed/year

Structure (SMILES): CC(/C=C1\SC(=O)NC1=O)=C\c1ccccc1 [Example 240, 5-(2-Methyl-3-phenylallylidene)thiazolidine-2,4-dione]
- melting point: 203 to 210 °C

Further lines, results first:

- melting point: 251 to 254 °C
Structure (SMILES): O=C1NC(=O)/C(=C/C(Cl)=C/c2ccccc2)S1 [Example 241, 5-(2-Chloro-3-phenylallylidene)thiazolidine-2,4-dione]

- melting point: 200 to 202 °C
Structure (SMILES): c1cc(COc2ccc3ccccc3c2)cc(-c2nnn[nH]2)c1 [Example 572, 5-(3-(Naphthalen-2-yloxymethyl)-phenyl)-1H-tetrazole]

- melting point: 338 to 347 °C
Structure (SMILES): O=C1NC(=O)/C(=C/c2cc3ccccc3[nH]c2=O)S1 [Example 242, 5-(2-Oxo-1,2-dihydroquinolin-3-ylmethylene)thiazolidine-2,4-dione]

- Kd [1, 4]: 68 nM
Structure (SMILES): O=C(O)COc1ccc(/C=C2\SC(=O)NC2=O)c2ccccc12 [Example 476, [4-(2,4-Dioxothiazolidin-5-ylidenemethyl)naphthalen-1-yloxy]acetic acid]

- dimer ([2]; 5° predicted): (0.057) % formed/year
- dimer ([2]; 15° C.): 0.33 % formed/year
- dimer ([2]; 25° C.): 1.20 % formed/year
- dimer ([2]; 30° C.): 2.34 % formed/year
- dimer ([2]; 37° C.): 6.50 % formed/year
- dimer ([2]; 45° C.): 23.4 % formed/year
- hphil (hydrophilic derivatives, desamido-insulins) ([3]; 5° predicted): (0.287) % formed/year
- hphob1 (hydrophobic derivatives 1) ([3]; 5° predicted): (0.153) % formed/year
- hphob2 (hydrophobic derivatives 2, insulin dimers) ([3]; 5° predicted): (0.044) % formed/year
- hphil (hydrophilic derivatives, desamido-insulins) ([3]; 15° C.): 1.14 % formed/year
- hphob1 (hydrophobic derivatives 1) ([3]; 15° C.): 0.67 % formed/year
- hphob2 (hydrophobic derivatives 2, insulin dimers) ([3]; 15° C.): 0.29 % formed/year
- hphil (hydrophilic derivatives, desamido-insulins) ([3]; 25° C.): 2.86 % formed/year
- hphob1 (hydrophobic derivatives 1) ([3]; 25° C.): 4.78 % formed/year
- hphob2 (hydrophobic derivatives 2, insulin dimers) ([3]; 25° C.): 0.99 % formed/year
- hphil (hydrophilic derivatives, desamido-insulins) ([3]; 30° C.): 5.12 % formed/year
- hphob1 (hydrophobic derivatives 1) ([3]; 30° C.): 7.11 % formed/year
- hphob2 (hydrophobic derivatives 2, insulin dimers) ([3]; 30° C.): 1.99 % formed/year
- hphil (hydrophilic derivatives, desamido-insulins) ([3]; 37° C.): 11.2 % formed/year
- hphob1 (hydrophobic derivatives 1) ([3]; 37° C.): 20.0 % formed/year
- hphob2 (hydrophobic derivatives 2, insulin dimers) ([3]; 37° C.): 7.02 % formed/year
- hphil (hydrophilic derivatives, desamido-insulins) ([3]; 45° C.): 29.9 % formed/year
- hphob1 (hydrophobic derivatives 1) ([3]; 45° C.): 52.6 % formed/year
- hphob2 (hydrophobic derivatives 2, insulin dimers) ([3]; 45° C.): 23.4 % formed/year
Structure (SMILES): O=C(O)COc1cccc(/C=C2\SC(=O)NC2=O)c1 [Example 461, [3-(2,4-Dioxothiazolidin-5-ylidenemethyl)phenoxy]acetic acid]

- Kd [1, 4]: 23 nM
Structure (SMILES): Fc1ccc(Cn2c3ccccc3c3cc(-c4nn[nH]n4)ccc32)c(F)c1 [Example 759, 9-(2,4-Difluorobenzyl)-3-(2H-tetrazol-5-yl)-9H-carbazole]
